Patent US20250129069A1, “TRIAZOLO WRN INHIBITORS” (Nimbus Wadjet, Inc., priority 2023, published 2025)
pEC50, pIC50: −log10 of the molar value. Where two headings read alike, the source gives them in different places.

Key:
[1] = system: p21 induction in HCT 116 cells; assay: p21 induction in cells (In-Cell Western, p21/GAPDH ratio); assay type: cell-based; settings: 24 h compound incubation, read-out: p21_EC50
In short: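 HCT 116 cells treated 24 h at 37° C with 11-point, 2-fold dilutions typically from 10 μM, in duplicate. Fixed cells co-stained for p21 (800 nm) and GAPDH (700 nm) by In-Cell Western. p21/GAPDH ratio normalised between DMSO and reference WRN inhibitor controls, and EC50 obtained by nonlinear regression.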

[2] = biological target: human Werner helicase (WRN, amino acids 517-1235 with L1074F point mutation) (Homo sapiens (Human), UniProt Q14191, L1074F); assay: WRN (BV08) ADP-Glo assay; assay type: biochemical; settings: human WRN (aa 517-1235, L1074F), read-out: ADP-Glo_hWRN_IC50
Chain of human Werner helicase (WRN, amino acids 517-1235 with L1074F point mutation) (Q14191 other isoform, or with tags, fused parts or gaps L1074F (already in the parent)): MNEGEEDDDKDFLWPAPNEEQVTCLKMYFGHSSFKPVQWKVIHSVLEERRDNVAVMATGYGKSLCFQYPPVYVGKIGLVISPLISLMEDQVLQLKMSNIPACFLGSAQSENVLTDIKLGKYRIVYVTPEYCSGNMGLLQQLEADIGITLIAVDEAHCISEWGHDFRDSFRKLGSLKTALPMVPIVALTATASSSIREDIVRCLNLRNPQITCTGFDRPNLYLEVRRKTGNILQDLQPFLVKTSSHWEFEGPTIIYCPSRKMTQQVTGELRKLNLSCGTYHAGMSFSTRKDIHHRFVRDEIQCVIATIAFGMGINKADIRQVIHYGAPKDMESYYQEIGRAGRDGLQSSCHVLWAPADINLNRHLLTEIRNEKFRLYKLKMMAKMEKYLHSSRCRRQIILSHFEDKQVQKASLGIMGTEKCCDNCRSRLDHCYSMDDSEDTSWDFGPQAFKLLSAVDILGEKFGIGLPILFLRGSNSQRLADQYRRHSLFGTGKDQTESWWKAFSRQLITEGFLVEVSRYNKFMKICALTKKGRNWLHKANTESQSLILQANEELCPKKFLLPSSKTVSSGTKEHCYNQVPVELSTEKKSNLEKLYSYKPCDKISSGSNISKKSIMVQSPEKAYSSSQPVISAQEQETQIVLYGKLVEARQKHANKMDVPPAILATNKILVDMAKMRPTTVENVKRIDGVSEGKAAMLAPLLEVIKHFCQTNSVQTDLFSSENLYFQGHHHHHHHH
Text: Bovine skin gelatin (BSG), dimethyl sulfoxide (DMSO), Pluronic F-127 and tris(2-carboxyethyl)phosphine hydrochloride solution (TCEP) were purchased from Sigma-Aldrich (St. Louis, MO) at the highest level of purity possible. Bicine buffer solution was purchased from Alfa Aesar (Tewksbury, MA) and compound NSC-617145 was purchased from Tocris (Minneapolis, MN). DNA duplex was synthesized at BGI (Shenzhen, China) and was composed of strand 1 with the sequence 5′-[…]-3′ (SEQ ID NO.: 1) and strand 2 with the sequence 5′-[…]-3′ (SEQ ID NO.: 2). DNA strands were annealed by heating to 95° C. for 5 minutes followed by slow cooling to room temperature. Compounds in 100% DMSO (0.1 μl) were spotted into a 384-well white polystyrene Optiplate-384 (Perkin Elmer; Waltham, MA) assay plate using a LabCyte Echo 550 (Agilent; Santa Clara, CA). DMSO (0.1 μl) was added to columns 12, rows A-H and column 24, rows I-P for the maximum signal control. Compound NSC-617145 (0.1 μl) was added to columns 12, rows I-P and 24, rows A-H for the minimum signal control (100% inhibition). Compounds/DMSO were preincubated for 15 minutes at 25° C. with 5 μl 2×WRN (BV08), prepared as described below, in assay buffer containing 20 mM Bicine (pH=7.5), 1 mM MgCl2, 10 mM KCl, 0.1% Pluronic F-127, 0.005% BSG, 1 mM TCEP. The reaction was initiated by the addition of 5 μl 2× substrate mixture in assay buffer and incubated for 60 minutes at 25° C. The final concentrations of the assay components were 0.15 nM WRN, 5 μM ATP, and 0.1 nM DNA duplex. The final DMSO concentration was 1% and the reference compound concentration (NSC-617145) used for the minimal signal control was 20 μM. The reaction was stopped by the addition of the ADP-Glo Kit components (Promega; Madison, WI) as directed and the relative luminescence units (RLU) were read on an Envision 2104 (Perkin Elmer; Waltham, MA).
% inhibition calculation:
% INH=(RLU MAX−RLU sample)/(RLU MAX−RLU MIN))×100
Where RLU=relative luminescence units, sample=signal in sample well, and MIN and MAX are the respective minimum and maximum signal controls. Four-parameter IC50 fit equation:
Y=Bottom+(Top−Bottom)/(1+(IC50/X)^Hill Slope)
Where top and bottom are normally allowed to float but may be fixed at 100 or 0 respectively in a 3-parameter fit. Y is the % inhibition and X is the compound concentration.
Molecular Biology and virus production. The DNA encoding human Werner helicase (Uniprot Q14191, amino acids 517-1235 with L1074F point mutation) was generated with codon-optimization for E. coli expression and subcloned into the pFastBac vector with a TEV cleavable 8×His tag (WRN—BV08). The baculovirus from the expression plasmid WRN—BV08 was generated from transfection and amplification following the manufacturer's instructions.
Sf9 cells grown in SF900II media were infected with 1:200 WRN—BV08 P2 virus and incubated for protein expression for 72 h at 27° C. The WRN protein was purified using the following protocol. The cell pellets were thawed and resuspended in buffer A (50 mM Tris, pH 7.5, 500 mM NaCl, 1 mM TCEP, 10% Glycerol) supplemented with 0.5% CHAPS, 1 mM PMSF, […] Leupeptin, 1 μg/ml Pepstatin, and the Pierce Universal Nuclease and cocktail tablet. Cleared lysates were loaded onto a Ni Sepharose™ excel column and washed with buffer A and bound protein was eluted with buffer A supplemented with 300 mM imidazole. The eluted protein was dialyzed against buffer A and digested by His-tagged TEV (1:5 ratio) overnight at 4° C. ZnCl2 was added into the sample at final 15 μM before loading onto a second Ni Sepharose™ excel column. Untagged WRN protein was eluted from the column with buffer A supplemented with 20 mM imidazole, dialyzed overnight into buffer B (50 mM Tris, pH 7.5, 1 mM TCEP, 10% Glycerol) supplemented with 150 mM NaCl and loaded onto a Heparin column. Proteins were eluted with a step gradient of buffer B supplemented with 150 mM, 200 mM, 300 mM and 500 mM NaCl. […]

## CCc1c(N2CCN(C(=O)c3c(OC)ncc([C@H]4CCOC4)c3O)CC2)c(=O)c2nn(-c3ccnc(OC)c3)nc2n1CC(=O)NC12CC(C(C)C)(C1)C2 (single isomer, unassigned) [Compound I-43]
[1]; Homo sapiens
  pEC50: 5.70 to 6.30
[2]
  pIC50: 7.30 to 8.30

## CCc1c(N2CCN(C(=O)c3c(OC)ncc([C@@H]4CCOC4)c3O)CC2)c(=O)c2nn(-c3ccnc(OC)c3)nc2n1CC(=O)NC12CC(C(C)C)(C1)C2 (single isomer, unassigned) [Compound I-44]
[1]; Homo sapiens
  pEC50: ≥ 6.30
[2]
  pIC50: 7.30 to 8.30

## CCc1c(N2CCN(C(=O)c3cn(C)nc3OC)[C@H]3CC[C@@H]32)c(=O)c2nn(C3=CCOCC3)nc2n1CC(=O)NC12CC(C(C)C)(C1)C2 [Compound I-209, 2-[2-(3,6-dihydro-2H-pyran-4-yl)-5-ethyl-6-[(1S,6S)-5-(3-methoxy-1-methyl-1H-pyrazole-4-carbonyl)-2,5-diazabicyclo[4.2.0]octan-2-yl]-7-oxo-2H,4H,7H-[1,2,3]triazolo[4,5-b]pyridin-4-yl]-N-[3-(propan-2-yl)bicyclo[1.1.1]pentan-1-yl]acetamide]
[1]; Homo sapiens
  pEC50: 5.70 to 6.30
[2]
  pIC50: 7.30 to 8.30

## CCc1c(N2CCN(C(=O)c3ncnc(C)c3O)[C@H]3CC[C@@H]32)c(=O)c2nn(-c3ccc(OC)cc3)nc2n1CC(=O)NC12CC(C(C)C)(C1)C2 [Compound I-155, 2-{5-ethyl-6-[(1S,6S)-5-(5-hydroxy-6-methylpyrimidine-4-carbonyl)-2,5-diazabicyclo[4.2.0]octan-2-yl]-2-(4-methoxyphenyl)-7-oxo-2H,4H,7H-[1,2,3]triazolo[4,5-b]pyridin-4-yl}-N-[3-(propan-2-yl)bicyclo[1.1.1]pentan-1-yl]acetamide]
[1]; Homo sapiens
  pEC50: ≥ 6.30
[2]
  pIC50: ≥ 8.30

## CCc1c(N2CCN(C(=O)c3cccnc3OC(F)F)[C@H]3CC[C@@H]32)c(=O)c2nn(C3=CCOCC3)nc2n1CC(=O)NC12CC(C(C)C)(C1)C2 [Compound I-207, 2-{6-[(1S,6S)-5-[2-(difluoromethoxy)pyridine-3-carbonyl]-2,5-diazabicyclo[4.2.0]octan-2-yl]-2-(3,6-dihydro-2H-pyran-4-yl)-5-ethyl-7-oxo-2H,4H,7H-[1,2,3]triazolo[4,5-b]pyridin-4-yl}-N-[3-(propan-2-yl)bicyclo[1.1.1]pentan-1-yl]acetamide]
[1]; Homo sapiens
  pEC50: 5.70 to 6.30
[2]
  pIC50: 7.30 to 8.30

## CCc1c(N2CCN(C(=O)c3c(OC)ncc(C)c3O)CC2)c(=O)c2nn(-c3ccnc(OC)c3)nc2n1CC(=O)NC12CC(C3CC3)(C1)C2 [Compound I-129, N-{3-cyclopropylbicyclo[1.1.1]pentan-1-yl}-2-{5-ethyl-6-[4-(4-hydroxy-2-methoxy-5-methylpyridine-3-carbonyl)piperazin-1-yl]-2-(2-methoxypyridin-4-yl)-7-oxo-2H,4H,7H-[1,2,3]triazolo[4,5-b]pyridin-4-yl}acetamide]
[1]; Homo sapiens
  pEC50: ≥ 6.30
[2]
  pIC50: 7.30 to 8.30

## CCc1c(N2CCN(C(=O)c3c(OC)ncc(F)c3O)[C@H]3CC[C@@H]32)c(=O)c2nn(-c3ccnc(OC)c3)nc2n1CC(=O)NC12CC(C(C)C)(C1)C2 [Compound I-177, 2-{5-ethyl-6-[(1S,6S)-5-(5-fluoro-4-hydroxy-2-methoxypyridine-3-carbonyl)-2,5-diazabicyclo[4.2.0]octan-2-yl]-2-(2-methoxypyridin-4-yl)-7-oxo-2H,4H,7H-[1,2,3]triazolo[4,5-b]pyridin-4-yl}-N-[3-(propan-2-yl)bicyclo[1.1.1]pentan-1-yl]acetamide]
[1]; Homo sapiens
  pEC50: ≥ 6.30
[2]
  pIC50: ≥ 8.30

## CCc1c(N2CCN(C(=O)c3ncnc(C)c3O)[C@H]3CC[C@@H]32)c(=O)c2nn(-c3ccnc(OC)c3)nc2n1CC(=O)NC12CC(C3CCC3)(C1)C2 [Compound I-28, N-(3-cyclobutylbicyclo[1.1.1]pentan-1-yl)-2-(5-ethyl-6-((1S,6S)-5-(5-hydroxy-6-methylpyrimidine-4-carbonyl)-2,5-diazabicyclo[4.2.0]octan-2-yl)-2-(2-methoxypyridin-4-yl)-7-oxo-2,7-dihydro-4H-[1,2,3]triazolo[4,5-b]pyridin-4-yl)acetamide]
[1]; Homo sapiens
  pEC50: ≥ 6.30
[2]
  pIC50: ≥ 8.30

## CCc1c(N2CCN(C(=O)c3ncnc(C)c3O)[C@H]3CC[C@@H]32)c(=O)c2nn(-c3ccnc(OC)c3)nc2n1CC(=O)NC1CC2(CC(C)C2)C1 (stereo partly drawn) [Compound I-88, 2-{5-ethyl-6-[(1S,6S)-5-(5-hydroxy-6-methylpyrimidine-4-carbonyl)-2,5-diazabicyclo[4.2.0]octan-2-yl]-2-(2-methoxypyridin-4-yl)-7-oxo-2H,4H,7H-[1,2,3]triazolo[4,5-b]pyridin-4-yl}-N-{6-methylspiro[3.3]heptan-2-yl}acetamide]
[1]; Homo sapiens
  pEC50: 5.70 to 6.30
[2]
  pIC50: 7.30 to 8.30

## CCc1c(N2CCN(C(=O)c3cccc4ncoc34)[C@H]3CC[C@@H]32)c(=O)c2nn(-c3ccnc(OC)c3)nc2n1CC(=O)Nc1ccc(C(F)(F)F)cc1Cl [Compound I-107, 2-{6-[(1S,6S)-5-(1,3-benzoxazole-7-carbonyl)-2,5-diazabicyclo[4.2.0]octan-2-yl]-5-ethyl-2-(2-methoxypyridin-4-yl)-7-oxo-2H,4H,7H-[1,2,3]triazolo[4,5-b]pyridin-4-yl}-N-[2-chloro-4-(trifluoromethyl)phenyl]acetamide]
[1]; Homo sapiens
  pEC50: ≥ 6.30
[2]
  pIC50: 7.30 to 8.30

## CCc1c(N2CCN(C(=O)c3c(O)ccc4ncoc34)[C@H]3CC[C@@H]32)c(=O)c2nn(-c3ccnc(OC)c3)nc2n1CC(=O)NC12CC(C(F)(F)F)(C1)C2 [Compound I-148, 2-{5-ethyl-6-[(1S,6S)-5-(6-hydroxy-1,3-benzoxazole-7-carbonyl)-2,5-diazabicyclo[4.2.0]octan-2-yl]-2-(2-methoxypyridin-4-yl)-7-oxo-2H,4H,7H-[1,2,3]triazolo[4,5-b]pyridin-4-yl}-N-[3-(trifluoromethyl)bicyclo[1.1.1]pentan-1-yl]acetamide]
[1]; Homo sapiens
  pEC50: ≥ 6.30
[2]
  pIC50: 7.30 to 8.30

## CCc1c(N2CCN(C(=O)c3ncnc(C)c3O)[C@H]3CC[C@@H]32)c(=O)c2nn(-c3ccnc(C)c3)nc2n1CC(=O)Nc1ccc(C(F)(F)F)cc1Cl [Compound I-96, N-[2-chloro-4-(trifluoromethyl)phenyl]-2-{5-ethyl-6-[(1S,6S)-5-(5-hydroxy-6-methylpyrimidine-4-carbonyl)-2,5-diazabicyclo[4.2.0]octan-2-yl]-2-(2-methylpyridin-4-yl)-7-oxo-2H,4H,7H-[1,2,3]triazolo[4,5-b]pyridin-4-yl}acetamide]
[1]
  pEC50: ≥ 6.30
[2]
  pIC50: ≥ 8.30

## CCc1c(N2CCN(C(=O)c3ncnc(C)c3O)CC2)c(=O)c2nn(-c3ccncc3)nc2n1CC(=O)Nc1ccc(C(F)(F)F)cc1Cl [Compound I-147, N-[2-chloro-4-(trifluoromethyl)phenyl]-2-{5-ethyl-6-[4-(5-hydroxy-6-methylpyrimidine-4-carbonyl)piperazin-1-yl]-7-oxo-2-(pyridin-4-yl)-2H,4H,7H-[1,2,3]triazolo[4,5-b]pyridin-4-yl}acetamide]
[1]; Homo sapiens
  pEC50: ≥ 6.30
[2]
  pIC50: ≥ 8.30
